Results from patent US11484558B2, “Epizootic hemorrhagic disease virus—tel aviv university (EHDV-TAU)—oncolytic virus for treating cancer” (Ramot at Tel-Aviv University Ltd., priority 2017, dated 2022).

Experiments:
LNCaP cells = test: Trypan blue exclusion assay of infected LNCaP cells; type: cell-based, human; conditions: for effect of inhibitor on EHDV-TAU-LNCaP-induced cell death: Q-VD-OPH 20 μM, Necrostatin-1 75 μM, 45 hours
Description: LNCaP cells were infected (+) or not (−) with EHDV-TAU-LNCaP (0.05 PFU/cell, for 45 hours) and treated (+) or not (−) with Q-VD-OPH (20 μM, for 45 hours during infection, or 20 hours during STS treatment), Necrostatin-1 (75 μM, for 45 hours) or staurosporine (STS, 1 μM, for 20 hours; serves as positive control of apoptosis induction). Graph depicts mean±SE (n=3) of the percentage of cell death under the indicated conditions. *p<0.05; **p<0.005.
LNCaP cells were infected or not with EHDV-TAU-LNCaP (0.05 PFU/cell, for 45 hours) and treated, or not, with IFNα or the indicated EpMs. Graph depicts mean±SE (n=5) of percentage of cell death under the indicated conditions; *p<0.05; ***p<0.0005.
Trypan blue exclusion assay—2×10^5 LNCaP cells/well in a 12-well plate were infected, or not, under the indicated experimental conditions. For each well, detached and attached cells were collected together and mixed with 0.5% trypan blue at a 1:1 ratio. Cells were classified by trypan blue exclusion by light microscopy. Trypan blue (0.5%) was from Beit Haemek Biological Industries, Israel (cat. #03-102-1B).

LNCaP-JAK1 cells = test: Immunoblot of NS3 in infected LNCaP-JAK1 cells; conditions: for effect of treatment on NS3 expression in EHDV-TAU-LNCaP-infected cells: LNCaP-JAK1, Baricitinib 0.5 μM, IFNα 200 U/ml, IFNγ 25 ng/ml, prior to and during infection

Nc1ncn([C@H]2C[C@H](O)[C@@H](CO)O2)c(=O)n1 [5AC, 5-Aza-2′-deoxycytidine]
effect on infection / virus-induced death (LNCaP cells; combination of 5AC and IFNα, compared to IFNα or 5AC alone): reduced infection to a greater and significant degree

CN1C(=O)C(Cc2c[nH]c3ccccc23)NC1=S (stereo not shown) [Necrostatin-1]
effect of inhibitor on EHDV-TAU-LNCaP-induced cell death (LNCaP cells): partial reduction

COC(=O)CC(NC(=O)C(NC(=O)c1ccc2ccccc2n1)C(C)C)C(=O)COc1c(F)cccc1F (stereo not shown) [Q-VD-OPh, Quinolyl-valyl-O-methylaspartyl-[-2,6-difluorophenoxy]-methyl ketone, reference compound]
effect on NS3 expression in infected, IL-6-treated cells (LNCaP-JAK1 cells; LNCaP-JAK1, Q-VD-OPh 20 μM, IL-6 5 ng/ml): failed to rescue NS3 expression | effect of inhibitor on EHDV-TAU-LNCaP-induced cell death (LNCaP cells): partial reduction

O=C(O)[C@H](Cc1c[nH]c2ccccc12)N1C(=O)c2ccccc2C1=O [RG108, N-phthalyl-L-tryptophan]
protection from EHDV-TAU-LNCaP-induced cell death (LNCaP cells; RG108 alone): partial protection | effect on virus-induced cell death (LNCaP cells; combination of IFN and RG108, relative to untreated infected cells): reduced it to half

IFNα
effect of treatment on NS3 expression in EHDV-TAU-LNCaP-infected cells (LNCaP-JAK1 cells): abolished NS3 expression | effect on EHDV-TAU-LNCaP-induced cell death (LNCaP cells; IFN alone): minimal reduction

IL-6: Human IL-6 (PeproTech), pleiotropic cytokine
effect on productive EHDV-TAU-LNCaP infection (LNCaP-JAK1 cells; LNCaP-JAK1, IL-6): reduce productive EHDV-TAU-LNCaP infection

B1: IFNγ: human IFNγ (PeproTech) (protein, UniProt P01579 24-161, looked up)
Interferon gamma: QDPYVKEAENLKKYFNAGHSDVADNGTLFLGILKNWKEESDRKIMQSQIVSFYFKLFKNFKDDQSIQKSVETIKEDMNVKFFNSNKKKRDDFEKLTNYSVTDLNVQRKAIHELIQVMAELSPAAKTGKRKRSQMLFRG
effect of treatment on NS3 expression in EHDV-TAU-LNCaP-infected cells (LNCaP-JAK1 cells): abrogated NS3 production
